From US6737383B1, “Herbicidal oxadiazolidines” (priority 1999, dated 2004)

Assays:
sugar beet = test: Test B pre/postemergence sugar beet; type: in vivo, Beta vulgaris
Procedure, shortened: (§1)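 Herbicidal effect was estimated by eye on a ten-point control scale after plants spent twelve to sixteen days in a greenhouse following soil or foliar treatment. Foliar sprays targeted plants at one to four leaves; all doses were formulated in a non-phytotoxic solvent with surfactant.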

pigweed = test: Test B pre/postemergence pigweed; type: in vivo, Amaranthus retroflexus
Procedure, shortened: as §1

corn = test: Test B pre/postemergence corn; type: in vivo, Zea mays
Procedure, shortened: as §1

rice = test: Test B flood test rice; type: in vivo, Oryza sativa; conditions: Pre-emergence
Procedure, shortened: (§2)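 Each value is a visual injury score relative to controls, with 10 meaning complete control and 0 no effect. Evaluation took place twelve to sixteen days after the 2-leaf-stage plants were treated and kept in the greenhouse.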

surinam grass = test: Test B pre/postemergence surinam grass; type: in vivo, Brachiaria decumbens
Procedure, shortened: as §1

giant foxtail = test: Test B pre/postemergence giant foxtail; type: in vivo, Setaria faberii
Procedure, shortened: as §1

wheat = test: Test B pre/postemergence wheat; type: in vivo, Triticum aestivum
Procedure, shortened: as §1

purple nutsedge = test: Test B pre/postemergence purple nutsedge; type: in vivo, Cyperus rotundus
Procedure, shortened: as §1

crabgrass = test: Test B pre/postemergence crabgrass; type: in vivo, Digitaria sanguinalis
Procedure, shortened: as §1

blackgrass = test: Test B pre/postemergence blackgrass; type: in vivo, Alopecurus myosuroides
Procedure, shortened: as §1

velvetleaf = test: Test B pre/postemergence velvetleaf; type: in vivo, Abutilon theophrasti
Procedure, shortened: as §1

cocklebur = test: Test B pre/postemergence cocklebur; type: in vivo, Xanthium strumarium
Procedure, shortened: as §1

duck salad = test: Test B flood test duck salad; type: in vivo, Heteranthera limosa; conditions: Pre-emergence
Procedure, shortened: as §2

rape = test: Test B pre/postemergence rape; type: in vivo, Brassica napus
Procedure, shortened: as §1

morningglory = test: Test B pre/postemergence morningglory; type: in vivo, Ipomoea hederacea
Procedure, shortened: as §1

smallflower flatsedge = test: Test B flood test smallflower flatsedge; type: in vivo, Cyperus difformis; conditions: Pre-emergence
Procedure, shortened: as §2

[1] = Postemergence, Rate 1000 g/ha, scale 0 to 10 (0 no effect, 10 complete control)
[2] = Preemergence, Rate 250 g/ha, scale of 0 to 10 where 0 is no effect and 10 is complete control
[3] = Preemergence, Rate 500 g/ha, scale of 0 to 10 where 0 is no effect and 10 is complete control
[4] = Rate 125 g/ha, Preemergence, scale of 0 to 10 where 0 is no effect and 10 is complete control
[5] = Rate 500 g/ha, Postemergence, scale 0 to 10, 0 no effect, 10 complete control
[6] = Rate 1000 g/ha, Preemergence, scale 0 to 10 (0 no effect, 10 complete control)
[7] = Rate 125 g/ha, Postemergence, scale 0 to 10
[8] = Rate 1000 g/ha, scale 0 to 10 (0 no effect, 10 complete control)
[9] = Rate 125 g/ha, flood test species, scale 0 to 10 where 0 is no effect and 10 is complete control
[10] = Rate 250 g/ha, flood-test species, scale 0 to 10, 0 is no effect, 10 is complete control
[11] = Rate 500 g/ha, flood test species, scale 0 to 10 (0 no effect, 10 complete control)

In the case of `CCOC(=O)C(C)N(C(=O)n1oc(=O)n(-c2ccccc2C)c1=O)c1ccc(F)cc1` (centres unmarked) [Compound 247], the “Sugarbeets plant response rating” value (sugar beet; [1]) is reported as 0, the “Sugarbeets plant response rating” value (sugar beet; [2]) is reported as 0 and the “Plant response rating, Sugarbeets” value (sugar beet; [3]) is reported as 0. For the same molecule, the “Sugarbeets plant response rating” value (sugar beet; [4]) was 0, the “Sugarbeets plant response rating” value (sugar beet; [5]) was 0 and the “Plant response rating, Sugarbeets” value (sugar beet; [6]) was 0. For the same molecule, the “Redroot pigweed plant response rating” value (pigweed; [1]) was 0, the “Redroot pigweed plant response rating” value (pigweed; [2]) was 0 and the “Plant response rating, Redroot pigweed” value (pigweed; [3]) was 0. For the same molecule, the “Redroot pigweed plant response rating” value (pigweed; [4]) was 0, the “Plant response rating (0 to 10; 0 is no effect, 10 is complete control), Redroot pigweed” value (pigweed; Rate 250 g/ha, Postemergence) was 0 and the “Redroot pigweed plant response rating” value (pigweed; [5]) was 0. The “Plant response rating, Redroot pigweed” value (pigweed; [6]) was 0, the “Corn plant response rating” value (corn; [1]) was 0 and the “Corn plant response rating” value (corn; [2]) was 0. The “Plant response rating, Corn” value (corn; [3]) was 0, the “Corn plant response rating” value (corn; [7]) was 0 and the “Corn plant response rating” value (corn; [4]) was 0. For the same molecule, the “Plant response rating (0 to 10; 0 is no effect, 10 is complete control), Corn” value (corn; Rate 250 g/ha, Postemergence) was 0, the “Corn plant response rating” value (corn; [5]) was 0 and the “Plant response rating, Corn” value (corn; [6]) was 0. The “Rice plant response rating” value (rice; [8]) was 0, the “Rice plant response rating” value (rice; [9]) was 0 and the “Rice plant response rating” value (rice; [10]) was 0. For the same molecule, the “Rice plant response rating” value (rice; [11]) was 0, the “B. signalgrass plant response rating” value (surinam grass; [1]) was 0 and the “B. signalgrass plant response rating” value (surinam grass; [2]) was 0. The “Plant response rating, B. signalgrass” value (surinam grass; [3]) was 0, the “B. signalgrass plant response rating” value (surinam grass; Rate 125 g/ha, Postemergence, scale 0 (no effect) to 10 (complete control)) was 0 and the “B. signalgrass plant response rating” value (surinam grass; [4]) was 0. For the same molecule, the “Plant response rating (0 to 10; 0 is no effect, 10 is complete control), B. signalgrass” value (surinam grass; Rate 250 g/ha, Postemergence) was 0, the “B. signalgrass plant response rating” value (surinam grass; [5]) was 0 and the “Plant response rating, B. signalgrass” value (surinam grass; [6]) was 0. For the same molecule, the “Giant foxtail plant response rating” value (giant foxtail; [1]) was 0, the “Giant foxtail plant response rating” value (giant foxtail; [2]) was 2 and the “Plant response rating, Giant foxtail” value (giant foxtail; [3]) was 3. For the same molecule, the “Giant foxtail plant response rating” value (giant foxtail; [4]) was 0, the “Plant response rating (0 to 10; 0 is no effect, 10 is complete control), Giant foxtail” value (giant foxtail; Rate 250 g/ha, Postemergence) was 0 and the “Giant foxtail plant response rating” value (giant foxtail; [5]) was 0. The “Plant response rating, Giant foxtail” value (giant foxtail; [6]) was 7, the “Wheat plant response rating” value (wheat; [1]) was 0 and the “Wheat plant response rating” value (wheat; [2]) was 0. The “Plant response rating, Wheat” value (wheat; [3]) was 0, the “Wheat plant response rating” value (wheat; [4]) was 0 and the “Wheat plant response rating” value (wheat; [5]) was 0. For the same molecule, the “Plant response rating, Wheat” value (wheat; [6]) was 0, the “Nutsedge plant response rating” value (purple nutsedge; [1]) was 0 and the “Nutsedge plant response rating” value (purple nutsedge; [2]) was 0. For the same molecule, the “Plant response rating (0 to 10; 0 is no effect, 10 is complete control), Nutsedge” value (purple nutsedge; Rate 250 g/ha, Postemergence) was 0, the “Nutsedge plant response rating” value (purple nutsedge; [5]) was 0 and the “Crabgrass plant response rating” value (crabgrass; [1]) was 0. For the same molecule, the “Crabgrass plant response rating” value (crabgrass; [2]) was 2, the “Plant response rating, Crabgrass” value (crabgrass; [3]) was 2 and the “Crabgrass plant response rating” value (crabgrass; [4]) was 0. The “Plant response rating (0 to 10; 0 is no effect, 10 is complete control), Crabgrass” value (crabgrass; Rate 250 g/ha, Postemergence) was 0, the “Crabgrass plant response rating” value (crabgrass; [5]) was 0 and the “Plant response rating, Crabgrass” value (crabgrass; [6]) was 3. For the same molecule, the “Blackgrass plant response rating” value (blackgrass; [1]) was 0, the “Blackgrass plant response rating” value (blackgrass; [2]) was 0 and the “Plant response rating, Blackgrass” value (blackgrass; [3]) was 0. For the same molecule, the “Blackgrass plant response rating” value (blackgrass; [7]) was 0, the “Blackgrass plant response rating” value (blackgrass; [4]) was 0 and the “Plant response rating (0 to 10; 0 is no effect, 10 is complete control), Blackgrass” value (blackgrass; Rate 250 g/ha, Postemergence) was 0. For the same molecule, the “Blackgrass plant response rating” value (blackgrass; [5]) was 0, the “Plant response rating, Blackgrass” value (blackgrass; [6]) was 0 and the “Velvetleaf plant response rating” value (velvetleaf; [1]) was 0. The “Velvetleaf plant response rating” value (velvetleaf; [2]) was 0, the “Plant response rating, Velvetleaf” value (velvetleaf; [3]) was 0 and the “Velvetleaf plant response rating” value (velvetleaf; [4]) was 0. For the same molecule, the “Velvetleaf plant response rating” value (velvetleaf; [5]) was 0, the “Plant response rating, Velvetleaf” value (velvetleaf; [6]) was 0 and the “Cocklebur plant response rating” value (cocklebur; [1]) was 0. The “Cocklebur plant response rating” value (cocklebur; [2]) was 0, the “Plant response rating, Cocklebur” value (cocklebur; [3]) was 0 and the “Cocklebur plant response rating” value (cocklebur; [7]) was 0. The “Cocklebur plant response rating” value (cocklebur; [4]) was 0, the “Plant response rating (0 to 10; 0 is no effect, 10 is complete control), Cocklebur” value (cocklebur; Rate 250 g/ha, Postemergence) was 0 and the “Cocklebur plant response rating” value (cocklebur; [5]) was 0. The “Plant response rating, Cocklebur” value (cocklebur; [6]) was 0, the “Ducksalad plant response rating” value (duck salad; [8]) was 0 and the “Ducksalad plant response rating” value (duck salad; [9]) was 0. For the same molecule, the “Ducksalad plant response rating” value (duck salad; [10]) was 0, the “Ducksalad plant response rating” value (duck salad; [11]) was 0 and the “Rape plant response rating” value (rape; [1]) was 0. The “Rape plant response rating” value (rape; [2]) was 0, the “Plant response rating, Rape” value (rape; [3]) was 0 and the “Rape plant response rating” value (rape; [4]) was 0. The “Plant response rating (0 to 10; 0 is no effect, 10 is complete control), Rape” value (rape; Rate 250 g/ha, Postemergence) was 0, the “Rape plant response rating” value (rape; [5]) was 0 and the “Plant response rating, Rape” value (rape; [6]) was 0. For the same molecule, the “Morningglory plant response rating” value (morningglory; [1]) was 4, the “Morningglory plant response rating” value (morningglory; [2]) was 0 and the “Plant response rating, Morningglory” value (morningglory; [3]) was 0. The “Morningglory plant response rating” value (morningglory; [4]) was 0, the “Plant response rating (0 to 10; 0 is no effect, 10 is complete control), Morningglory” value (morningglory; Rate 250 g/ha, Postemergence) was 2 and the “Morningglory plant response rating” value (morningglory; [5]) was 2. The “Plant response rating, Morningglory” value (morningglory; [6]) was 0, the “S. Flatsedge plant response rating” value (smallflower flatsedge; [8]) was 0 and the “S. Flatsedge plant response rating” value (smallflower flatsedge; [9]) was 0. For the same molecule, the “S. Flatsedge plant response rating” value (smallflower flatsedge; [10]) was 0 and the “S. Flatsedge plant response rating” value (smallflower flatsedge; [11]) was 0.
